The values below come from patent publication US5180742A, “Quinone derivatives, their production and use” (Takeda Chemical Industries, Ltd., priority 1984, dated 1993).

SMILES strings stand for the structures.

In assay [1] the test system is experimental cerebral infarction model of Mongolian gerbils. Nature of the assay: Anti-edema action in an experimental cerebral infarction model of Mongolian gerbil. Format: in vivo. Conditions: oral, 1 hour before carotid ligation. As to the method: Anti-Edema Action in an Experimental Cerebral Infarction Model of Mongolian Gerbil
Male Monglian gerbils (8-10 weeks of age) were used. Under light ether anesthesia, the right common carotid artery was ligated for 1 hour to induce experimental cerebral infarction, and then reperfused on removing the ligature. One hour after reperfusion, the animal was guillotined, the brain was excised, and divided into the left and right brain hemispheres. The wet weight of each hemisphere was determined, and then the dry weight was determined after drying for 24 hours at 96° C. The water content (%) of each hemisphere was estimated according to the following equation. [formula] In addition, neurological deficit symptoms were observed during ligation-and-reperfusion periods.
Test drugs were orally administered as a gum arabic suspension 1 hour before the common carotid artery ligation under an unanesthetized condition. Results

A further assay addresses T1, 5-Lipoxygenase (Rattus norvegicus, UniProt P12527).
T1 construct: endogenous in cells; host or cells: RBL-1 (rat basophilic leukemia cells)
T1 sequence (P12527 1-673): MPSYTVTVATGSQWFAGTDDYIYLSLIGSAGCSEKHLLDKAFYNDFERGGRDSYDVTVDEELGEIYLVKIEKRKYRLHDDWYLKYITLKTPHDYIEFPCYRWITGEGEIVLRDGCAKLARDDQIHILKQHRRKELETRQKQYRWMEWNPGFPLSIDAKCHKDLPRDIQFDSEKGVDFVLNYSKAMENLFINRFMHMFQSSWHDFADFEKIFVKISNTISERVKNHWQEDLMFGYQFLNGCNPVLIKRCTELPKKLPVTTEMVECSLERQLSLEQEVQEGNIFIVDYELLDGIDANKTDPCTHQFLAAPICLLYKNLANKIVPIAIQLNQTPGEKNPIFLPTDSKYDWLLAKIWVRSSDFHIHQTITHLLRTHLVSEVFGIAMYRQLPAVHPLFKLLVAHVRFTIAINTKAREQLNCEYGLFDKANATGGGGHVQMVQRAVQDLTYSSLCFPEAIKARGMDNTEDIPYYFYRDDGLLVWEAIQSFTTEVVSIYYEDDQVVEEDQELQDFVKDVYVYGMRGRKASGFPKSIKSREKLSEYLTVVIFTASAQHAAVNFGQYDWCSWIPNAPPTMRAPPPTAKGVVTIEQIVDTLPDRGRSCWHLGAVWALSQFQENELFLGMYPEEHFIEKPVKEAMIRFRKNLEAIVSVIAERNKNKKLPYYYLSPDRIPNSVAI
Put plainly: 5-Lipoxygenase inhibitory activity: 5-HETE production in RBL-1 cells (HPLC). It counts as cell-based, rat (RBL-1, rat basophilic leukemia cells). Conditions: arachidonic acid + A 23187, 37° C., 20 minutes, read-out: 5-HETE production inhibiting effect (IC50). As to the method: 5-Lipoxygenase Inhibitory Activity
10^7 RBL-1 cells (rat basophilic leukemia cells) were suspended in 0.5 ml of MCM (mast cell medium), and test solutions (made up of 0.5 ml of MCM, 50 μg of arachidonic acid, 10 μg of A 23187 (calcium ionophore, Eli Lilly) and 1 μM, 0.1 μM, 0.01 μM and0.001 μM as the final concentration of the quinone compound, respectively) prepared previously were added respectively to the suspension, followed by reaction at 37° C. for 20 minutes. After the conclusion of the reaction, 4 ml of ethanol and 1,4-dimethoxy-2-methyl-3-(3-methoxypropyl)naphthalene as the internal reference drug were added to the reaction solution, and the mixture was shaken thoroughly and allowed to stand at room temperature for 10 minutes. Then, it was centrifuged (2000 r.p.m.) for 10 minutes, and the supernatant fluid was separated and concentrated to dryness under reduced pressure. 0.5 Milliliter of 60% aqueous methanol was added to the concentrate, and 100 μl of the resulting solution was taken and subjected to high-performance liquid chromatography to determine amount of 5-HETE (5-hydroxyeicosatetraenoic acid). Determination of 5-HETE was made through measurement of an absorption at 237 nm with a UV absorption monitor.
The 5-HETE production inhibitory effect (IE) was expressed by [formula] wherein a is a peak height or peak area corrected by the peak for the internal reference when the quinone compound is not contained; b is a peak height or peak area corrected by the peak for the internal reference when the quinone compound is contained.

The subject of assay [2] is lipid peroxides production in rat brain homogenates. Nature of the assay: Inhibitory action on lipid peroxides production in rat brain homogenates (thiobarbituric acid method). It counts as biochemical, rat (SD). The note with it: n = 4-6. As for the experimental part:
Inhibitory Action on Lipid Peroxides Production in Rat Brain Homogenates
The male SD rat brain tissue was used as 5% homogenate in phosphate-buffered solution. After incubation of the homogenate for 1 hour at 37° C., the amount of lipid peroxides produced was determined by the thiobarbituric acid method according to the description of Ohkawa et al. (Analytical Biochemistry, 95: 551, 1979)
Test compounds were used as a solution of dimethylsulfoxide. The inhibitory action on lipid peroxide production was expressed as a % inhibition as compared with the amount of production in the vehicle group. Results

The subject of assay [3] is SRS-A generation in the rat peritoneal cavity. Put plainly: Effects on immunologically stimulated generation of SRS-A in the rat peritoneal cavity. It counts as in vivo. Conditions: 1 mg/kg intraperitoneal, 1 min before antigen. As for the experimental part:
Slow Reacting Substance of Anaphylaxis (SRS-A) Generation in Rat Peritoneal Cavity
Generation of SRS-A in rat peritoneal cavity was determined by the method of Orange et al. [J. Immunol., 105, 1087-1095 (1970)] Rat-anti-egg albumin antiserum wad diluted twice with saline, and 2 ml of it was intraperitoneally given to the rat. Two hours later, egg albumin 2 mg in 5 ml of Tyrode solution containing heparin ([…]) and gelatin (0.1%) was intraperitoneally administered. Fifteen minutes after the antigen challenge, the animals were killed by bleeding under ether anesthesia and the solution given into the peritoneal cavity was harvested. The solution was centrifuged at 900 g for 5 min. Two ml of the supernatent was mixed with 7 ml of cold absolute ethanol and the mixture stood for 30 min at 4° C. After centrifugation at 1,500 g for 10 min, the supernatant was evaporated. The residue was dissolved in 1 ml of saline. Amount of SRS-A was bioassayed using guinea pig ileum. Drug dissolved in a 1% dimethylsulfoxide was intraperitoneally given 1 min before the antigen challenge.

Assay [4] relates to Fe^3+ -NTA-induced injury of rat kidney. Nature of the assay: Inhibitory effect on Fe3+-NTA-induced injury of rat kidney. Conditions: 20 mg/kg oral once a day; for body weight gain: control 9.8 ± 5.4, normal 68.3 ± 2.3; for Urinary volume: control 20, normal 6.8; for Urinary protein: control 25.1, normal 5.1. Format: in vivo, Wistar rats. As to the method:
Ferric Nitrilotriacetate (Fe^3+ -NTA)-Induced Injury of Rat Kidney
Male Wistar rats of 4 weeks old weighing about 80 g were used. Injury of kidney was induced by the method of Awai et al. [Amer. J. Pathol., 95, 663-674 (1979)]. The mixture of ferric nitrate and NTA as a ratio of 1:4 was intraperitoneally given: iron of 5 mg/kg for 3 days followed 10 mg/kg for 9 days. Twelve days later, the animals were killed. Body weight gain, urinary volume, urinary protein and wet and dry weights of kidney were measured. Drugs were suspended in a 5% gum arabic solution and given orally once a day in a dose of 20 mg/kg.

Usually IC50 stands for the concentration that gives 50% inhibition. Consider `CC1=C(C)C(=O)C(C(CCCCCC(=O)O)c2ccccc2)=C(C)C1=O` (stereo not shown) [Compound No. 50, 7-(3,5,6-trimethyl-1,4-benzoquinon-2-yl)-7-phenylheptanoic acid], for which the “Incidence of appearance of neurological deficit symptoms” value in assay [1] (control 5/6) is 1/6. The “Water content, normal side (left)” value in assay [1] (control 80.1 ± 0.3) is on record as 79.8 ± 1.0%. For the same compound, the “Water content, infarct side (right)” value in assay [1] (control 81.3 ± 0.9) is given as 80.3 ± 1.0%. Moreover, on 5-Lipoxygenase, the IC50 turned out to be 28 nM. Moreover, the “Inhibition of lipid peroxides production” value in assay [2] (10^-5 M) worked out at 100 ± 0%. The “Inhibition of lipid peroxides production” value in assay [2] (10^-6 M) worked out at 66.6 ± 12.4%. For the same compound, in assay [2] (10^-7 M), the “Inhibition of lipid peroxides production” value was 16.7 ± 3.2%. The “SRS-A generation, Inhibition (%)” value in assay [3] came to 72%. The SRS-A generation in assay [3] (control 26.5 ± 3.9) was 7.5 ± 2.0 LTD4 ng/rat. Moreover, in assay [4], the “Urinary protein (% inhibition)” value is reported as 88%, the “Urinary volume (% Inhibition)” value amounted to 88%, the “Water content in kidney (% Inhibition)” value was determined as 81% and the body weight gain is 39.3 ± 7.4 g. In assay [4], this compound had a Urinary volume of 8.4 mL/day and a Urinary protein of 7.5 mg/day.

On to `CC1=C(C)C(=O)C(C(CCCCCC(=O)O)c2ccc(C)cc2)=C(C)C1=O` (stereo not shown) [Compound No. 93], for which the concentration for half-maximal inhibition (IC50) at 5-Lipoxygenase turned out to be 90 nM. Also, in assay [4], the “Urinary protein (% inhibition)” value was 10%, the “Urinary volume (% Inhibition)” value worked out at 47%, the “Water content in kidney (% Inhibition)” value worked out at 7% and the body weight gain came to 26.2 ± 4.9 g. Also, in assay [4], the Urinary volume was determined as 13.6 mL/day and the Urinary protein came out at 23.1 mg/day.
